We go through 1 compound from patent US12564581B2, “Pyrazole pharmaceutical composition” (Intervet Inc., priority 2019, dated 2026).

Data set [1] in a line: Solubility of the compound in surfactant solutions. The class given is physicochemical. From the text: To increase solubility of the compound and promote increase bioavailability, a number of surfactants were screened. The table below lists the solubilities of 1-[(3R,4S)-4-cyanotetrahydropyran-3-yl]-3-[(2-fluoro-6-methoxy-4-pyridyl)amino]pyrazole-4-carboxamide in the tested surfactant solutions.

The test system of a further data set is cIL-31 induced pruritus. The settings on record: with respect to placebo; similar magnitude to oclacitinib (Apoquel); from WO 2018/108969; cited from earlier work.

A word on the solubility: it is the concentration that dissolves in the medium under given conditions. Read a high solubility as a readily soluble substance. As for `COc1cc(Nc2nn([C@H]3COCC[C@@H]3C#N)cc2C(N)=O)cc(F)n1` [compound of Formula (I), 1-[(3R,4S)-4-cyanotetrahydropyran-3-yl]-3-[(2-fluoro-6-methoxy-4-pyridyl)amino]pyrazole-4-carboxamide], the solubility is 50.3 µg/mL in data set [1] (1% polysorbate (Tween 80) solution, aqueous with cosolvent or surfactant or cyclodextrin, 1% polysorbate (Tween 80)); 195 µg/mL in data set [1] (1% sodium lauryl sulfate (SLS) solution, aqueous with cosolvent or surfactant or cyclodextrin, 1% sodium lauryl sulfate (SLS)); 541 µg/mL in data set [1] (10% ELP solution, aqueous with cosolvent or surfactant or cyclodextrin, 10% ELP); 217 µg/mL in data set [1] (10% P407 solution, aqueous with cosolvent or surfactant or cyclodextrin, 10% P407); 108 µg/mL in data set [1] (10% Poloxamer 124 solution, aqueous with cosolvent or surfactant or cyclodextrin, 10% Poloxamer 124); 109 µg/mL in data set [1] (10% Poloxamer 188 solution, aqueous with cosolvent or surfactant or cyclodextrin, 10% Poloxamer 188). The solubility came to 489 µg/mL in data set [1] (10% hydrogenated castor oil (RH40) solution, aqueous with cosolvent or surfactant or cyclodextrin, 10% hydrogenated castor oil (RH40)); 133 µg/mL in data set [1] (10% polyvinylpyrrolidone (PVP) solution, aqueous with cosolvent or surfactant or cyclodextrin, 10% polyvinylpyrrolidone (PVP)); 1420 µg/mL in data set [1] (30% HS15 solution, aqueous with cosolvent or surfactant or cyclodextrin, 30% HS15); 807 µg/mL in data set [1] (Oleoyl macrogol-6 / polyoxyl-6 glycerides (Labrafil M1944CS), oil or lipid); 99 µg/mL in data set [1] (aqueous with cosolvent or surfactant or cyclodextrin, 1% D-a-Tocopheryl polyethylene glycol 1000 succinate (TPGS)); 460 µg/mL in data set [1] (aqueous with cosolvent or surfactant or cyclodextrin, 10% polyoxyethylated 12-hydroxystearic acid (Solutol HS 15)). Besides, in data set [1] (water), the solubility came out at 8 µg/mL. In addition, the “Water solubility (in words)” value in data set [1] (water) is given as “poorly water soluble”. The Suppression of pruritus result in the data set on cIL-31 induced pruritus is recorded as “significantly suppressed pruritus”.
